Measured values as given in patent publication US7790896B2, “RNA-selective probes for live cell imaging of nuclear structure and function” (New York University, priority 2006, dated 2010).

Legend:
[1] = tested on: RNA (Type VI from torula yeast); test: In vitro solution assay (primary screening): fluorescent emission fold change upon binding to RNA; conditions: dye 10 μM, RNA 500 μg/mL in TE buffer
Description: (§1) The fluorescence spectra data in the primary screening and selected dyes titration assay study was obtained by Gemini XS plate reader. RNA solution was prepared right before the assay experiments to avoid possible degradation and contamination. In the primary screening, 1 mg/mL RNA (type VI from torula yeast) buffer solution was used. Point scans were carried out first using five Ex/Em point sets ([…], 400/500, 450/550, 500/600, 550/650 nm). Spectra scans were then carried out for the selected dyes. Excitation wavelengths were set at 350 nm, 400 nm, 450 nm, 500 nm, and 550 nm and the emission wavelengths were scanned. RNA (16S- and 23S-ribosomal from E. coli) and DNA (salmon testes) titration experiments and quantum yield/extinction coefficient determination for the three best dyes were carried out by the plate reader as well. Excitation λmax obtained from F-2500 Hitachi Fluorophotometer was used. Absorbance wavelength was determined by SpectraMax Plus^384 absorbance plate reader. […] was chosen as standard and 480 nm was used as excitation wavelength in the scanning for quantum yield determination.
The screening strategy used in this study is illustrated in FIG. 2. Both in vitro RNA assays and live cell imaging methods were utilized in the primary screening of the dye library. Selective binding of the dye to RNA in solution was the primary criterion for selecting lead compounds for subsequent bioimaging studies, Herein, the library dyes' fluorescent emission intensity fold change upon binding to RNA was measured in solution. Dyes showing five-fold or higher emission changes in the presence of RNA were selected (Table 3). Note the dyes listed are identified by the building blocks I and II from Table 2. For example, A4 is the product made by reacting compound A from the list of Building block I and compound 4 from the list of Building block II.

3T3 cells = test: Live cell staining working concentration in 3T3 cells; format: cell-based, mouse
Description: (§2) All cell staining imaging followed the same procedure. Generally, dyes in dry state were first dissolved in DMSO to obtain the stock solution. The stock solutions were then added directly to the cell culture wells to reach the desired concentration. Total DMSO was lower than 0.1%. After adding dyes, cells were incubated at 37° C. in 5% CO2 for 25 minutes. The medium was then removed and cells were rinsed with fresh medium twice. The cells were then imaged at ambient temperature in the medium. Exposure time was kept less than 5 seconds and adjusted to each dye.
In fluorescence microscopic imaging studies, it is always desirable to use as little dye as possible to stain organelles in order to maximize specificity and minimize dye toxicity and cell death. To determine the lowest working concentration of each dye, four different concentrations (20 μM, 10 μM, 5 μM, and 1 μM) were tested in four cell lines (Hela, A549, 3T3, and 3T3-L1). Dyes E36, E144, and F112 were imaged using FITC channel, and F22 was imaged using Cy3 channel. Generally, a quality fluorescence signal for each dye was produced using a concentration of 5 μM for E36, E144, and F22 and 10 μM for F112 (Table 5). It was interesting to observe that compound F22 was brighter in 3T3 cells, and a concentration of 1 μM was sufficient for a clear image (FIG. 4). […]

A549 = test: Phototoxicity test, MTS assay of irradiated cells; format: cell-based, human; conditions: dye 5 μM, irradiated 5 minutes, 24 hours incubation
Description: Dye DMSO stock solutions were diluted by fresh medium into working concentration (5 μM). Cells were cultured in 96-well plate for 12 hours before experiments. The cell medium was exchanged with dye medium solutions. Cells were then incubated in at 37° C., in 5% CO2 for 25 minutes before being irradiated by fluorescent light using the appropriate working filter (FITC for E36 and E144; Cy3 for F22) for 5 minutes. The plates were then incubated at 37° C. in 5% CO2 The cell viability was measured by MTS assay after 5 and 24 hours following the cytotoxicity measurement procedure. Duplicated experiments have been tested.
Phototoxicity is also an important factor in evaluating applicability of new fluorescent probes for live cell imaging. […] Nevertheless, it is desirable for the new imaging probes to be as non-phototoxic as possible. To investigate the phototoxicity of the present RNA-selective compounds, cellular viability of irradiated cells using MTS assay was assessed. Cells were incubated with dyes (E36, E144, and F22) in their working concentration (5 μM), and then irradiated with the appropriate filters using the fluorescent microscope (FITC for E36 and E144; Cy3 for F22). While light exposures used for imaging experiments are generally a few seconds long at most, cells were irradiated for 5 minutes for prolonged toxicity measurement. […]

[2] = tested on: Hela, A549, 3T3, and 3T3-L1; test: Optimization of working concentration and imaging properties, live cell staining; format: cell-based, human, mouse; conditions: 20, 10, 5 and 1 μM tested in four cell lines
Description: as §2
In fluorescence microscopic imaging studies, it is always desirable to use as little dye as possible to stain organelles in order to maximize specificity and minimize dye toxicity and cell death. To determine the lowest working concentration of each dye, four different concentrations (20 μM, 10 μM, 5 μM, and 1 μM) were tested in four cell lines (Hela, A549, 3T3, and 3T3-L1). Dyes E36, E144, and F112 were imaged using FITC channel, and F22 was imaged using Cy3 channel. Generally, a quality fluorescence signal for each dye was produced using a concentration of 5 μM for E36, E144, and F22 and 10 μM for F112 (Table 5). It was interesting to observe that compound F22 was brighter in 3T3 cells, and a concentration of 1 μM was sufficient for a clear image (FIG. 4). […] Little photobleaching and no obvious cell morphology or viability changes were observed during the tests.

[3] = Fluorescence spectrum in TE buffer of dyes selected from live cell imaging; format: physicochemical; conditions: dye 10 μM in TE buffer
Description: as §1

[4] = tested on: Hela, A549, 3T3, and 3T3-L1 cells; test: Dye cell-tolerability: cell viability and morphology changes observed; format: cell-based, human, mouse; conditions: 20 μM, after 8 hours
Description: Low cytotoxicity is one of the most important criteria for live cell imaging probes. All four compounds were tested at 20 μM, 10 μM, 5 μM, and 1 μM in Hela, A549, 3T3, and 3T3-L1 cells. Cell viability and morphology changes were observed during 2, 8, and 24 hours. Only dye E36 was toxic to A549, 3T3, and 3T3-L1 cells at high concentration (20 μM) after 8 hours.

SMILES: COc1ccc2c(ccc(/C=C/c3ccc(N(C)C)cc3)[n+]2C)c1 [Dye F22]
- Em(nm) [1]: 640 nm
- Ex(nm) [1]: 500 nm
- Fold (fluorescent emission fold changes to RNA) [1]: 23
- Concentration sufficient for a clear image (3T3 cells): 1 µM
- Phototoxicity (A549): not A549

SMILES: COc1cc(OC)c(/C=C/c2ccc3ccccc3[n+]2C)c(OC)c1 [Dye E144]
- Em(nm) [1]: 540 nm
- Ex(nm) [1]: 450 nm
- Fold (fluorescent emission fold changes to RNA) [1]: 5
- Optimum Concentration for live cell imaging [2]: 5 µM

SMILES: C[n+]1c(/C=C/c2c[nH]c3ccccc23)ccc2ccccc21 [Dye E36]
- SPECTRUM EM [3]: 550 nm
- SPECTRUM EX [3]: 450 nm
- Optimum Concentration for live cell imaging [2]: 5 µM
- Toxicity (cell viability and morphology changes) [4]: toxic
